The source of these data is patent US10875860B2, “Azaindenoisoquinoline compounds and uses thereof” (Purdue Research Foundation, priority 2016, dated 2020).

Data set [1] deals with Tdp1 (Homo sapiens, UniProt Q9NUW8). Kind of data set: Recombinant Tdp1 assay. Type of data set: biochemical. The note with it: semiquantitative scale, in duplicate; Table 1; read-out: Enzyme Inhibitory Activity Tdp1.
Data set [2] concerns SN12C. In words: NCI-60 cytotoxicity, SN12C. Conditions: Homo sapiens, read-out: Cytotoxicity (GI50) Renal SN12C.
For data set [3], the system named is SF-539. Kind of data set: NCI-60 cytotoxicity, SF-539. The note with it: Homo sapiens, SF-539, read-out: Cytotoxicity (GI50) CNS SF-539.
The target of data set [4] is T1, Top1 (Homo sapiens, UniProt P11387).
T1 sequence (P11387 1-765): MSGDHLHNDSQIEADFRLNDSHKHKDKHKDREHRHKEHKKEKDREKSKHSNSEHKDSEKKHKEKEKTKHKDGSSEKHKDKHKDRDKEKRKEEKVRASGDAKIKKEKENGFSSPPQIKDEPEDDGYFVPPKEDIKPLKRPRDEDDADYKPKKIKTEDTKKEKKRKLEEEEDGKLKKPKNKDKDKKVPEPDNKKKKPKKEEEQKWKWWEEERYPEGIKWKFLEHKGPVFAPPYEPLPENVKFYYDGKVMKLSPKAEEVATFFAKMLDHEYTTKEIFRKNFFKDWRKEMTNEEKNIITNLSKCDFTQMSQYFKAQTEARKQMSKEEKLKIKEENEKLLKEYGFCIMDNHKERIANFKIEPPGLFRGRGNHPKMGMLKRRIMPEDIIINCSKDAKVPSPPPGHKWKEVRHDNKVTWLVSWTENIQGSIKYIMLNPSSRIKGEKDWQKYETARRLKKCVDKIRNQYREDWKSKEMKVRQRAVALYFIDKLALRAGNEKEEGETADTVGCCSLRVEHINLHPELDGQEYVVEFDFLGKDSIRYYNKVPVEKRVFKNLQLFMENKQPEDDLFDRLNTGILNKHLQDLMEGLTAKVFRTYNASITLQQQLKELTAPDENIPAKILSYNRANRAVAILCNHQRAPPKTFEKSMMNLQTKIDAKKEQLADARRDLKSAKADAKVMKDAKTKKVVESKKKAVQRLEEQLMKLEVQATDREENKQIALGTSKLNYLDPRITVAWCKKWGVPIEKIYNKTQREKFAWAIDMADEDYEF
In words: Top1-mediated DNA cleavage assay. Type of data set: biochemical. The arrangement: Top1 inhibitory activity level / Top1 inhibitory activity score: key to the marks not given beside the values. Conditions: for Enzyme Inhibitory Activity Top1: DNA cleavage relative to 1 μM MJ-III-65 (19) and 1 μM camptothecin (18), Table 1; for Top1 inhibitory activity level: series 1.

In data set [5] the test system is NCI-60 panel of human cancer cell lines. In words: NCI-60 screen, mean graph midpoint over all cell lines. The note with it: Homo sapiens.
The subject of data set [6] is UACC-62. In words: NCI-60 cytotoxicity, UACC-62. Conditions: Homo sapiens, UACC-62, read-out: Cytotoxicity (GI50) Melanoma UACC-62.
The target of data set [7] is T2, recombinant human TDP2 (Homo sapiens, UniProt O95551).
T2 sequence (O95551 1-362): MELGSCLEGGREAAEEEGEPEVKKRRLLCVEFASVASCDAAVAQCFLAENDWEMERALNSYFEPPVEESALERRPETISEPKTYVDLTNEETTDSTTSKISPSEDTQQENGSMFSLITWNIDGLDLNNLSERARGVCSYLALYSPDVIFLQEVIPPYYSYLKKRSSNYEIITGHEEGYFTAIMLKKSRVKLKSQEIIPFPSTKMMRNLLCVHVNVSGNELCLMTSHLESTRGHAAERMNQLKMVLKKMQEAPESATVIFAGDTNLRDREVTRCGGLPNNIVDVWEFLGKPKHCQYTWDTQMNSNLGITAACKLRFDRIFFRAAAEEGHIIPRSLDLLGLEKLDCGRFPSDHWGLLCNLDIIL
In words: Recombinant Tdp2 assay. Type of data set: biochemical. The note with it: semiquantitative scale, in duplicate; Table 1; read-out: Enzyme Inhibitory Activity Tdp2.
Procedure: TDP2 reactions were carried out as described previously with the following modifications. […] Reactions were terminated and treated similarly to whole-cell extract and recombinant Tdp1 reactions (see previous paragraph).

In data set [8] the test system is HOP-62. In words: NCI-60 cytotoxicity, HOP-62. Conditions: Homo sapiens, HOP-62, read-out: Cytotoxicity (GI50) Lung HOP-62.
For data set [9], the system named is OVCAR-3. Kind of data set: NCI-60 cytotoxicity, OVCAR-3. Conditions: Homo sapiens, OVCAR-3, read-out: Cytotoxicity (GI50) Ovarian Ovcar-3.
In data set [10] the test system is MCF-7. In words: NCI-60 cytotoxicity, MCF-7. The note with it: Homo sapiens, MCF7, read-out: Cytotoxicity (GI50) Breast MCF-7.
Setting [11] is: read-out: Cytotoxicity (GI50) MGM.

Structures are written as SMILES. pIC50: −log10 of the molar value. Read-outs that look alike come from different tables or passages of the source. A value given as a limit tells only on which side of the number the result lay.

Tdp1, sequence (Q9NUW8 whole entry): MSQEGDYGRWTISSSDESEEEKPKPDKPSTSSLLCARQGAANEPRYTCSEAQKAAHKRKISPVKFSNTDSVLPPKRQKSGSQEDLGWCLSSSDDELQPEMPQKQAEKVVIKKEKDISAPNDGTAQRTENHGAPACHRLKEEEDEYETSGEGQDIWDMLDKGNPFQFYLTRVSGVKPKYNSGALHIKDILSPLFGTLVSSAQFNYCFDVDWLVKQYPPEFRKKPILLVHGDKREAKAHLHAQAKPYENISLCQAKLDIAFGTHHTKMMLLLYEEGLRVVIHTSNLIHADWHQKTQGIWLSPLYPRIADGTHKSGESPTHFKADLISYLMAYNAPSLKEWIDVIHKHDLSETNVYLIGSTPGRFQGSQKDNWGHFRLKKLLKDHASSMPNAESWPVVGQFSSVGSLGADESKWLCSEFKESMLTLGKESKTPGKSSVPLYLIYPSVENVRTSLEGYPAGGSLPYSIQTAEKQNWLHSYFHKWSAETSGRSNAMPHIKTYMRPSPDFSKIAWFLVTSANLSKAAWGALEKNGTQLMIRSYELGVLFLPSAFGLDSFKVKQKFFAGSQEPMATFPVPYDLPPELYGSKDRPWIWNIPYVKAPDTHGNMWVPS

For orientation: GI50 means the concentration at which growth is held to half of that of the control. By melting point is commonly meant the temperature, or range, at which the solid turns liquid. Take `COc1cnc2c(c1)C(=O)c1c-2n(CCCN2CCCC2)c(=O)c2cc([N+](=O)[O-])ccc12` [Compound 8, 7-Aza-5,6-dihydro-6-[3-(4-pyrrolidine-1-yl)propyl]-9-methoxy-3-nitro-5,11-dioxo-11H-indeno[1,2-c]isoquinoline]: the melting point was in the range of 248 to 250 °C. Moreover, in [1], the pIC50 was 4.92 to 6.00. In data set [2], the GI50 was 36 nM. For the same molecule, in [3], the GI50 came out at 31 nM. Moreover, in [4], the “Enzyme Inhibitory Activity Top1” value is “++” and the “Top1 inhibitory activity level” value is on record as “++”. The GI50 in data set [5] (setting [11]) was 45 nM. Moreover, the GI50 in data set [6] is 15 nM. Also, the pIC50 in data set [7] is 3.95 to 4.43. Further, in data set [8], the GI50 is less than 10 nM. In addition, the GI50 in [9] came out at 59 nM. Besides, the GI50 in [10] was less than 10 nM.
`COc1cnc2c(c1)C(=O)c1c-2n(CCCN2CCN(C)CC2)c(=O)c2cc([N+](=O)[O-])ccc12` [Compound 9, 7-Aza-5,6-dihydro-6-[3-(3H-methylpiperazine-1-yl)propyl]-9-methoxy-3-nitro-5,11-dioxo-11H-indeno[1,2-c]isoquinoline] registered a melting point of 211 to 213 °C. Further, the pIC50 in [1] was 4.43 to 4.92. Also, in [2], the concentration for 50% growth inhibition (GI50) is 214 nM. Besides, the 50% growth inhibitory concentration (GI50) in data set [3] came to 191 nM. In addition, in data set [4], the “Enzyme Inhibitory Activity Top1” value is “++” and the “Top1 inhibitory activity level” value is recorded as “++”. For the same molecule, the 50% growth inhibitory concentration (GI50) in data set [5] (setting [11]) came out at 562 nM. Besides, the concentration for 50% growth inhibition (GI50) in data set [6] was found to be 183 nM. Besides, the pIC50 in [7] was 4.43 to 4.92. In data set [8], the GI50 came out at 81 nM. The GI50 in [9] came out at 171 nM. In addition, the GI50 in [10] came to 16 nM.
Take `COc1cnc2c(c1)C(=O)c1c-2n(CCCN2CCNCC2)c(=O)c2cc([N+](=O)[O-])ccc12` [Compound 10, 7-Aza-5,6-dihydro-9-methoxy-3-nitro-5,11-dioxo-6-[3-(piperazine-1-yl)propyl]-11H-indeno[1,2-c]isoquinoline]: the melting point fell in the range of 134 to 135 °C. In addition, the pIC50 in data set [1] is 4.43 to 4.92. For the same molecule, the GI50 in data set [2] came out at 230 nM. In addition, the GI50 in data set [3] was found to be 355 nM. Moreover, in [4], the “Enzyme Inhibitory Activity Top1” value is reported as “++” and the “Top1 inhibitory activity level” value is reported as “++”. Further, in data set [5] (setting [11]), the GI50 was 316 nM. Besides, the GI50 in [6] was determined as 175 nM. Also, in data set [7], the pIC50 was 3.95 to 4.43. The GI50 in data set [8] was determined as 65 nM. Further, the GI50 in data set [9] amounted to 1190 nM. In [10], the GI50 came to 36 nM.
With `CNCCCn1c2c(c3ccc([N+](=O)[O-])cc3c1=O)C(=O)c1cc(OC)cnc1-2` [Compound 11], the melting point was 259 to 262 °C. In [1], the pIC50 was 4.92 to 6.00. Besides, in data set [2], the GI50 was 46 nM. Moreover, in data set [3], the GI50 was 51 nM. In data set [4], the “Enzyme Inhibitory Activity Top1” value was “+++” and the “Top1 inhibitory activity level” value is “+++”. In data set [5] (setting [11]), the GI50 was 741 nM. In data set [5] (read-out: MGM (GI50 mean graph midpoint)), the GI50 worked out at 714 nM. The GI50 in data set [6] was 20 nM. The pIC50 in [7] is 3.95 to 4.43. Further, the GI50 in data set [8] was 30 nM. Moreover, the GI50 in [9] was determined as 174 nM. Moreover, the 50% growth inhibitory concentration (GI50) in data set [10] was 1060 nM.
`COc1cnc2c(c1)C(=O)c1c-2n(CCCNC2=NCCS2)c(=O)c2cc([N+](=O)[O-])ccc12` [Compound 12, 7-Aza-5,6-dihydro-6-[3-((4,5-dihydrothiazol-2-yl)amino)propyl]-9-methoxy-3-nitro-5,11-dioxo-11H-indeno[1,2-c]isoquinoline]: the melting point was in the range of 175 to 177 °C. Moreover, the pIC50 in data set [1] was 4.92 to 6.00. The GI50 in data set [2] was less than 10 nM. In addition, the GI50 in data set [3] was 36 nM. In addition, in data set [4], the “Enzyme Inhibitory Activity Top1” value was “++++” and the “Top1 inhibitory activity level” value is “++++”. For the same molecule, the GI50 in [5] (setting [11]) worked out at 58 nM. In data set [6], the GI50 is less than 10 nM. Further, in [7], the pIC50 was 4.43 to 4.92. In [8], the GI50 came to 14 nM. Further, in data set [9], the GI50 amounted to 137 nM. Further, in data set [10], the GI50 is less than 10 nM.
`COc1cnc2c(c1)C(=O)c1c-2n(CCCNCCN2CCOCC2)c(=O)c2cc([N+](=O)[O-])ccc12` [Compound 13, 7-Aza-5,6-dihydro-9-methoxy-6-[3-((2-morpholinoethyl)amino)propyl]-3-nitro-5,11-dioxo-11H-indeno[1,2-c]isoquinoline] had a melting point of 214 to 216 °C. For the same molecule, the pIC50 in data set [1] was 4.43 to 4.92. Moreover, in data set [2], the GI50 is 80 nM. The GI50 in data set [3] came out at 311 nM. Also, in data set [4], the “Enzyme Inhibitory Activity Top1” value is on record as “+++” and the “Top1 inhibitory activity level” value is on record as “+++”. Also, the GI50 in data set [5] (setting [11]) is 177 nM. Also, the GI50 in [6] stood at 44 nM. Besides, the pIC50 in data set [7] is 3.95 to 4.43. In data set [8], the 50% growth inhibitory concentration (GI50) was determined as 150 nM. Moreover, in data set [9], the GI50 was found to be 315 nM. Moreover, the GI50 in data set [10] came to 32 nM.
For `COc1cnc2c(c1)C(=O)c1c-2n(CCCNC(C)C)c(=O)c2cc([N+](=O)[O-])ccc12` [Compound 14, 7-Aza-5,6-dihydro-6-[3-(isopropylamino)propyl]-9-methoxy-3-nitro-5,11-dioxo-11H-indeno[1,2-c]isoquinoline], the melting point was 278 to 280 °C. The pIC50 in [1] was 4.43 to 4.92. Besides, the GI50 in data set [2] is 39 nM. The GI50 in [3] was 51 nM. Besides, in data set [4], the “Enzyme Inhibitory Activity Top1” value is “++++” and the “Top1 inhibitory activity level” value is reported as “++++”. The GI50 in data set [5] (setting [11]) amounted to 58 nM. Besides, in data set [6], the GI50 was 19 nM. Besides, the pIC50 in data set [7] was 3.95 to 4.43. Also, in data set [8], the GI50 is 85 nM. Also, the concentration for 50% growth inhibition (GI50) in [9] was 82 nM. Also, the GI50 in data set [10] turned out to be 12 nM.
In the case of `CCNCCCn1c2c(c3ccc([N+](=O)[O-])cc3c1=O)C(=O)c1cc(OC)cnc1-2` [Compound 15, 7-Aza-6-[3-(ethylamino)propyl]-5,6-dihydro-9-methoxy-3-nitro-5,11-dioxo-11H-indeno[1,2-c]isoquinoline], the melting point was 266 to 268 °C. Also, the pIC50 in data set [1] is 4.92 to 6.00. Also, the GI50 in [2] came to 53 nM. Further, the GI50 in data set [3] came to 70 nM. In data set [4], the “Enzyme Inhibitory Activity Top1” value is “++++” and the “Top1 inhibitory activity level” value was “++++”. For the same molecule, in data set [5] (setting [11]), the GI50 was found to be 79 nM. In [6], the GI50 amounted to 27 nM. Besides, the pIC50 in [7] was 3.95 to 4.43. Moreover, in [8], the GI50 stood at 107 nM. In addition, the GI50 in data set [9] is 62 nM. Besides, in [10], the concentration for 50% growth inhibition (GI50) stood at 19 nM.
